{"source": "paper PMC9323733", "about": "“Efficacy of Vafidemstat in Experimental Autoimmune Encephalomyelitis Highlights the KDM1A/RCOR1/HDAC Epigenetic Axis in Multiple Sclerosis” (Pharmaceutics, 2022)", "key": {"recombinant HDAC2": {"target": "T1, recombinant HDAC2 (Homo sapiens, UniProt Q92769)", "T1 construct": "purchased BPS Bioscience 50002", "T1 sequence (Q92769 whole entry)": "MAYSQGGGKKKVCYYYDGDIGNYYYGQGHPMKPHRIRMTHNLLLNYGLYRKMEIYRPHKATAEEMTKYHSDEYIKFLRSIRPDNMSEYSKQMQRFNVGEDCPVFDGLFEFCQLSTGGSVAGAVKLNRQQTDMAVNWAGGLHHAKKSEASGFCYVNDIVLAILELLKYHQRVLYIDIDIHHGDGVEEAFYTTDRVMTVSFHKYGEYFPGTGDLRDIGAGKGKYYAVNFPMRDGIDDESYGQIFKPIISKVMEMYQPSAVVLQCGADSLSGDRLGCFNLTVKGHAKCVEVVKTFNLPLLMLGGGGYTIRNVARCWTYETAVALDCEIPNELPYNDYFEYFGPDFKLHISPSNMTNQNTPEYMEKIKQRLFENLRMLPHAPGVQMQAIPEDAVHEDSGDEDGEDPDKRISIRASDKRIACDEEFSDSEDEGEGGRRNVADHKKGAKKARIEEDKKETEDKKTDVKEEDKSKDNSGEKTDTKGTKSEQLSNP", "assay": "HDAC2 fluorimetric biochemical assay", "experimental": "HDAC2 activity was determined using a fluorimetric assay at BPS Bioscience (San Diego, CA, USA). Compounds were dissolved in DMSO (Sigma), and serial dilutions were further diluted in HDAC assay buffer (BPS). These working solutions were incubated in duplicate at room temperature for 3 h in a mixture containing HDAC assay buffer, BSA (Fisher Scientific), and recombinant HDAC2 (BPS). The enzymatic reactions were initiated by the addition of a fluorogenic, acetylated peptide substrate (BPS) and proceeded for 30 min at 37 °C. Then, HDAC assay developer (BPS) was added, and after further incubation at room temperature, fluorescence intensity was measured at an excitation of 360 nm and an emission of 460 nm using a Tecan Infinite M1000 microplate reader. Trichostatin A (TSA, Selleckchem, Houston, TX, USA) was used as a reference inhibitor.\nFor the biochemical assays, the fluorescence signal relative to the background (assay mixture in the absence of the enzyme) was subtracted from each fluorescent intensity data. Activity in the presence of compound was expressed as a percentage of fluorescence intensity in the absence of the compound."}, "SH-SY5Y cells": {"system": "SH-SY5Y cells", "assay": "Human H3 acetylation assay (Western blot), cellular HDAC activity", "assay_type": "cell-based", "settings": "1 and 0.1 µM, 2 and 6 h", "experimental": "Human H3 acetylation assays: for the determination of global and K9-specific acetylation levels, 500,000 SH-SY5Y cells were seeded in 6-well plates in DMEM/F12 1:1 (Sigma), supplemented with 2 mM glutamine (LabClinics) and 10% FBS (Sigma) and incubated at 37 °C and 5% CO2 in a humid atmosphere. […] After 2 and 6 h of treatment, cells were harvested and centrifuged at 250× g for 4 min at room temperature and cell pellets used for total histone extraction with EpiQuik Total Histone Extraction Kit (Epigentek, Farmingdale, NY, USA) following manufacturer’s instructions. 1 µg of histone extracts were run in MOPS buffer in 12% PAGE (Life Technologies, Carlsbad, CA, USA) and transferred with the iBlot system to nitrocellulose membranes. Transferred blots were stained with the Ponceau S solution (Sigma) and scanned with an Epson Perfection V600 Photo Scanner. Membranes were blocked in blocking buffer (5% skimmed milk in PBS-Tween 0.1%) for 1 h at room temperature, and after blocking blots were incubated with rabbit polyclonal anti-H3K9Ac (1:2000 dilution, Abcam, Cambridge, UK) and rabbit polyclonal anti-H3ac (K9 + K14 + K18 + K23 + K27) (1:2000 dilution, Abcam) overnight at 4 °C in ablocking buffer. […]"}, "human S1P1 receptor": {"target": "T2, human S1P1 receptor (Homo sapiens, UniProt P21453)", "T2 construct": "host or cells: CHO cells", "T2 sequence (P21453 whole entry)": "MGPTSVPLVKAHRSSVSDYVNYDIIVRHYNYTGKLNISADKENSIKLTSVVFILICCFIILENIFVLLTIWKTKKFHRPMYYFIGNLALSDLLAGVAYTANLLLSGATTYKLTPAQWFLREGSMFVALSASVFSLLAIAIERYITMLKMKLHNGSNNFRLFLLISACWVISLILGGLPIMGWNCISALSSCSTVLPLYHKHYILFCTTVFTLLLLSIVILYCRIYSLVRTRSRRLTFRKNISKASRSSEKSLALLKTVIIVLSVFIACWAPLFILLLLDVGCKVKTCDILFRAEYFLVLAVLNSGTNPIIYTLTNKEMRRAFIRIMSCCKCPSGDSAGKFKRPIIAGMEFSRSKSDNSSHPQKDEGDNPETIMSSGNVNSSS", "assay": "CellKey impedance assay in CHO cells, agonistic and antagonistic effect", "assay_type": "cell-based", "experimental": "Cell on impedance modulation, using the CellKey (Cellular Dielectric Spectroscopy) detection method (CellKey 96, MDS Sciex, Concord, ON, Canada) at Eurofins Pharma Discovery Services (Celle-Lévescault, France). CHO cells were seeded onto a 96-well plate at 15.104 cells/well in HBSS buffer (Invitrogen), 20 mM HEPES (Invitrogen), 10% FCS (Invitrogen), and 0.1% BSA (Sigma), allowed to equilibrate for 60 min at 28 °C. DMSO solutions of compounds were diluted in HBSS and 0.1% BSA. Plates were placed onto the system, and measurements were made at a temperature of 28 °C. To measure the agonistic effect, compounds and controls in duplicate were added simultaneously to all of the wells using an integrated fluidics system. Impedance measurements were monitored for 10 min after ligand addition. […] To measure the antagonistic effect, compounds and controls in duplicate were pre-incubated for 15 min before the addition of the reference agonist S1P at 0.01 µM (EC80). Impedance measurements were monitored for 10 min.\nEvaluation of the agonistic (a) and antagonist (b) effect of the compounds on the human S1P1 receptor. […] Data are expressed as percentage of control (no compound) activity, n = 2. TSA was used as a control; (d) Cellular HDAC activity assay. […] SAHA was used as a control. Ponceau S staining was used as loading control. Veh: Vehicle. […] TSA: Trichostatin A. SAHA: suberoylanilide hydroxamic acid."}, "KDM1A": {"target": "KDM1A (Homo sapiens, UniProt O60341)", "assay": "In vitro potency, KDM1A inhibition", "assay_type": "biochemical"}, "[1]": {"system": "C57BL/6 mice with chronic EAE", "assay": "Chronic EAE induced by MOG35–55, clinical score", "assay_type": "in vivo, mouse", "experimental": "Mice also received i.p. injections of 200 ng of pertussis toxin on days 0 and 2 [32]. Immunized mice were randomly distributed in different groups. […] MPTP is a prodrug which is converted to the neurotoxin 1-methyl-4-phenylpyridinium (MPP+) by MAO-B in vivo.\nCompounds were administered once daily for five consecutive days in two cycles, from day 12 to 16 and from day 19 to 23 post-immunization. […] HPβCD was included to facilitate dissolution. Mice were scored daily for signs of EAE according to the following clinical scoring system: 0, no clinical signs; 0.5, partial loss of tail tonicity; 1, complete loss of tail tonicity; 2, flaccid tail and abnormal gait; 3, complete hind leg paralysis; 4, hind leg paralysis with hind body paresis; 5, hind and foreleg paralysis; and 6, death. Intermediate phenotypes were scored as a half integer. Animals were sacrificed when they kept a score of 5 more than 24 h. Investigators which administered the compounds and scored the animals were blinded to the treatments."}}}
{"smiles": "CCCCCCCCc1ccc(CC[C@](N)(CO)COP(=O)(O)O)cc1", "note": "[FTY720-P, Fingolimod Phosphate]", "values": [{"measurement": "impact on recombinant HDAC2 activity", "setting": "recombinant HDAC2", "value": "unable to confirm the previous studies reporting that FTY720 or FTY720-P had any significant impact"}, {"measurement": "impact on cellular HDAC activity (acetylated H3 or H3K9 levels)", "setting": "SH-SY5Y cells", "value": "unable to confirm the previous studies reporting that FTY720 or FTY720-P had any significant impact"}]}
{"smiles": "CCCCCCCCCCCCC/C=C/[C@@H](O)[C@@H](N)COP(=O)(O)O", "note": "[S1P]", "values": [{"measurement": "EC80, reference agonist", "setting": "human S1P1 receptor; concentration used in antagonist mode", "value": 0.01, "unit": "µM"}, {"measurement": "EC50", "setting": "human S1P1 receptor; impedance, agonistic effect, read-out: EC50, reference agonist", "value": 0.001, "unit": "µM"}]}
{"smiles": "CCCCCCCCc1cccc(NC(=O)[C@H](N)COP(=O)(O)O)c1", "note": "[VPC23019]", "values": [{"measurement": "IC50", "setting": "human S1P1 receptor; impedance, vs S1P at 0.01 µM, read-out: IC50, reference antagonist", "value": 0.027, "unit": "µM"}]}
{"smiles": "C#CCN[C@@H]1CCc2ccccc21", "note": "[rasagiline, reference compound]", "values": [{"measurement": "IC50", "setting": "KDM1A", "value": "> 100", "unit": "µM"}, {"measurement": "mice with no or only mild clinical signs at the end of the study", "setting": "[1]; EAE experiment 2", "value": 44, "unit": "%"}, {"measurement": "effect on clinical course / disease severity", "setting": "[1]; EAE experiment 2 (mild), p.o. ORY-2001 0.05, 0.5, 1 mg/kg, ORY-LSD1 90, 180 µg/kg, rasagiline 3 mg/kg", "value": "showed no overall protective effect"}, {"measurement": "animals with severe signs (maximum clinical score 3.5–6)", "setting": "[1]; EAE experiment 2, highest dose tested", "value": 33, "unit": "%"}, {"measurement": "onset of clinical signs", "setting": "[1]; EAE experiment 2, rasagiline 3 mg/kg", "value": "slight delay of the onset of the clinical signs"}]}
